# Experimental data reported in patent US20230331779A1, “BISPECIFIC FUSION POLYPEPTIDE COMPOUND” (SHAANXI MICOT TECHNOLOGY CO., LTD., priority 2020, published 2023).
# Read-outs that look alike come from different tables or passages of the source.
# How the values were obtained:
# [1] = Plasma PTH in 5/6 nephrectomy rats (secondary hyperparathyroidism model); type: in vivo, rat; conditions: 3.0 mg/kg s.c. three times a week
# Description: Male SD rats were divided into a sham operation group and a 5/6 nephrectomy group (5/6Nx). Rats in the nephrectomy group underwent 5/6 nephrectomy, and were fed with high-phosphorus diet for two weeks after the operation to accelerate the induction of the secondary hyperparathyroidism rat model. After being fed with high-phosphorus diet for 3 weeks, the model rats were randomly divided into 6 groups, a 5/6Nx group (Vehicle), a positive control drug etelcalcetide group (3.0 mg/kg) and 4 groups of the compound of Example 1 (0.5, 1.0, 2.0, 4.0 mg/kg). The rats were administered subcutaneously three times a week for 6 consecutive weeks. Before the first administration, after the first administration, and 4 hours after administration in the 2nd, 4th, and 6th week, blood samples were collected from rats, and the plasma and serum were separated for the detection of the content of PTH in the plasma at each time point.
# [2] = Cortical bone porosity in adenine-gavage SHPT rats (Micro CT of femur); type: in vivo, rat; conditions: 3.0 mg/kg s.c. three times a week for six weeks, Mean ± SEM
# Description: According to the Yokozawz method, SD rats were given adenine gavage to establish an animal model of chronic renal failure, and fed with a high-phosphorus diet to induce a model of secondary hyperparathyroidism. Rats were fed until the end of the experiment, and model rats were screened according to the content of PTH in plasma. According to the PTH content and body weight, the model rats were randomly divided into 5 groups: a normal saline group, an etelcalcetide (3.0 mg/kg, dissolved in normal saline) group, 3 groups of Example 1 (1.0 mg/kg, 2.0 mg/kg and 4.0 mg/kg, dissolved in normal saline), and subcutaneously administered three times a week for six consecutive weeks at 1.0 ml/kg per rat. Six weeks later, the left femur of the rat was taken, the muscle and connective tissue were removed, and the femur was placed in a 4% formalin solution. Micro CT scanning was performed 24 hours later, and data was subjected analysis.
# [3] = molecular target: T1, calcium-sensing receptor (CASR) (Homo sapiens, UniProt P41180); experiment: CaSR activation, HTRF IP-1 competition method in HEK293-CaSR cells; type: cell-based
# T1 construct: expressed in transfected cells; host or cells: HEK293-CaSR cells
# T1 sequence (P41180 20-1078): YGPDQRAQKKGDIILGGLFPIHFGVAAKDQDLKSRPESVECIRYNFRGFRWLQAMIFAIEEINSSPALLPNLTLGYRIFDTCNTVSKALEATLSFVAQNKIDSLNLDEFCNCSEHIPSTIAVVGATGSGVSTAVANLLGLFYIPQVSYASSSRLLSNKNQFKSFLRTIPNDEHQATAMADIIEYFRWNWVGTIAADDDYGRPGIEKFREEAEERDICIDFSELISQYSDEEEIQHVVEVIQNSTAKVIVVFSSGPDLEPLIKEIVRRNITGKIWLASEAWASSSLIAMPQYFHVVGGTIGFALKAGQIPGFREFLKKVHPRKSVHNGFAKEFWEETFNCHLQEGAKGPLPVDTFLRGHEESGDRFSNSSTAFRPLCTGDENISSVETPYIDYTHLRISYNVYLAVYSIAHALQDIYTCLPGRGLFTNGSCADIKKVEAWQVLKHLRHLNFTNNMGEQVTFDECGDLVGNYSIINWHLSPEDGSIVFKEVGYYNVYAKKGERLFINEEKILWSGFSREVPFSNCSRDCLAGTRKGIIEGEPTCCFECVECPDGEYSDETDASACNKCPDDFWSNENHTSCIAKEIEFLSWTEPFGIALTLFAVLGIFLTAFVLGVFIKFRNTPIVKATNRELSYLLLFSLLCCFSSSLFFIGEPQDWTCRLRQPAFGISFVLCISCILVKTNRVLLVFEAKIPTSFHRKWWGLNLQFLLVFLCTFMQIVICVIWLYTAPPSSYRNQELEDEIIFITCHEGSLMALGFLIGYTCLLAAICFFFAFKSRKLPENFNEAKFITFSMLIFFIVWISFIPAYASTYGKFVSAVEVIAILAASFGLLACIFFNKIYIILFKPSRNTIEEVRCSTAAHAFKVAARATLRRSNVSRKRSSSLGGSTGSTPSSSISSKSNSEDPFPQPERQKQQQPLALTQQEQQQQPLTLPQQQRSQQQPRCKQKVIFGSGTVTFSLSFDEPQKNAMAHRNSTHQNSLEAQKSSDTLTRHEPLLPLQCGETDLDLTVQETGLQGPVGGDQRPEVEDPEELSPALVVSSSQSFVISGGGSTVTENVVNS
# Description: In the CaSR activation experiment, the Homogeneous Time-Resolved Fluorescence (HTRF) IP-1 (myolnositol 1 phosphate) competition method was used to detect the effect of the polypeptide of Example 1 on CaSR.
# [4] = Effect of single intravenous injection on blood calcium in normal rats; type: in vivo, rat; conditions: for blood calcium level after a single intravenous bolus injection: normal SD rats
# Description: (§1) Test method: SPF grade SD rats, weighing 250-280 g, were randomly divided into 7 groups, 6 administration groups and 1 blank control group (Vehicle=normal saline). The test samples were prepared into a solution with normal saline for administration. The test compound was administered by a single tail vein injection (1 mL/kg) at a dose of 0.5 mg/kg, 1.5 mg/kg and 4.5 mg/kg, respectively. Serum calcium (mmol/L) and phosphorus levels (mmol/L) were measured at 0 hour and at 4, 8 and 16 hours after administration.
# (§2) Data processing: The concentrations of PTH, calcium and phosphorus in each group and at each time point were statistically analyzed using the graphpad 6.0 software.
# [5] = Effect of single intravenous injection on blood phosphorus in normal rats; type: in vivo, rat; conditions: for blood phosphorus level after a single intravenous bolus injection: normal SD rats
# Description: as §1, §2
# fibroblast NIH/3T3 cells = experiment: CyQUANT in vitro proliferation of fibroblast cells; type: cell-based; conditions: FIG. 1; comparable effective dose for Example 1 and OGP
# Description: (§3) The CyQUANT cell proliferation detection kit was used to determine the in vitro proliferation effect of the polypeptide of Example 1 on osteoblast MC3T3-E1 Subclone 4 and fibroblast NIH/3T3 cells. Osteogenic growth peptide (OGP) was used as a positive control in the experiment. The polypeptide of Example 1 and OGP were prepared to the following concentrations: 10^−8 mol/L, 10^−9 mol/L, 10^−10 mol/L, 10^−11 mol/L, 10^−12 mol/L, 10^−13 mol/L, 10^−14 mol/L, 10^−15 mol/L and 10^−16 mol/L. 100 μL of medium was discarded from each well of the cell plate to be tested, and 100 μL of 2×CyQuant detection reagent was added to each well. The plate was then placed in a 37° C., 5% CO2 incubator for 60 min. Fluorescence values were read in bottom-reading mode with excitation and emission wavelengths of 480/535 nm.
# (§4) % relative to Control=(reading value of compound well−reading value of blank control well)/(reading value of base control well−reading value of blank control well)×100
# [6] = system: osteoblast MC3T3-E1 Subclone 4 cells; experiment: CyQUANT in vitro proliferation of osteoblast cells; type: cell-based; conditions: FIG. 1; Example 1 effect more pronounced than that of OGP
# Description: as §3, §4
# [7] = 0.5 mg/kg i.v., 0 h (before administration)
# [8] = 1.5 mg/kg i.v., 0 h (before administration)
# [9] = 4.5 mg/kg i.v., 0 h (before administration)
molecule,measurement,setting,value
"CC(=O)N[C@H](CSSC[C@H](N)C(=O)O)C(=O)N[C@H](C)C(=O)N[C@H](CCCNC(=N)N)C(=O)N[C@H](CCCNC(=N)N)C(=O)N[C@H](CCCNC(=N)N)C(=O)N[C@H](C)C(=O)N[C@H](CCCNC(=N)N)C(N)=O [Etelcalcetide, etelcalcetide]",PTH change in plasma 4 h after administration,[1]; 2 weeks,−95.57 ± 0.28%
same,PTH change in plasma 4 h after administration,[1]; 4 weeks,−93.81 ± 0.59%
same,PTH change in plasma 4 h after administration,[1]; 6 weeks,−92.63 ± 0.77%
same,PTH change in plasma 4 h after administration,[1]; first administration,−92.03 ± 0.67%
same,Cortical bone porosity,[2],4.13 ± 2.27%
CC(=O)N[C@H](CSSC[C@H](NC(=O)CNC(=O)CNC(=O)[C@@H](Cc1ccccc1)NC(=O)C(C)(C)NC(=O)[C@H](N)Cc1ccc(O)cc1)C(=O)O)C(=O)N[C@H](C)C(=O)N[C@H](CCCNC(=N)N)C(=O)N[C@H](CCCNC(=N)N)C(=O)N[C@H](CCCNC(=N)N)C(=O)N[C@H](C)C(=O)N[C@H](CCCNC(=N)N)C(N)=O [Example 1],EC50,"[3]; Ca2+ concentration of 1.2 mM, read-out: EC50, agonistic activity on HEK293-CaSR cells",84.7 µM
same,EC50,"[3]; in the absence of Ca2+, read-out: EC50, agonist activity on HEK293-CaSR cells",980 µM
"Example 2: Ac-D-Cys-D-Ala-D-Arg-D-Arg-D-Arg-D-Ala-D-Arg-NH2 linked by disulfide bond to H-D-Tyr-D-Arg-D-Phe-Gly-Gly-L-Cys-OH (CARRRAR; D-amino acids, Ac, NH2, disulfide-linked second peptide; MOD_RES (1)..(7) Cys, Ala and Arg are D-amino acids; MOD_RES (1)..(1) Cys is acetylated; MOD_RES (7)..(7) Arg is amidated; BINDING (1)..(1) Cys is linked ot Cys in SEQ ID NO 6 via disulfide bond)",blood calcium level after a single intravenous bolus injection,[4]; [7],2.42 ± 0.02 mmol/L
same,blood calcium level after a single intravenous bolus injection,"[4]; 0.5 mg/kg i.v., 4 h",2.05 ± 0.04 mmol/L
same,blood calcium level after a single intravenous bolus injection,"[4]; 0.5 mg/kg i.v., 8 h",2.20 ± 0.02 mmol/L
same,blood calcium level after a single intravenous bolus injection,"[4]; 0.5 mg/kg i.v., 16 h",2.27 ± 0.01 mmol/L
same,blood calcium level after a single intravenous bolus injection,[4]; [8],2.41 ± 0.06 mmol/L
same,blood calcium level after a single intravenous bolus injection,"[4]; 1.5 mg/kg i.v., 4 h",2.02 ± 0.06 mmol/L
same,blood calcium level after a single intravenous bolus injection,"[4]; 1.5 mg/kg i.v., 8 h",1.84 ± 0.04 mmol/L
same,blood calcium level after a single intravenous bolus injection,"[4]; 1.5 mg/kg i.v., 16 h",2.10 ± 0.03 mmol/L
same,blood calcium level after a single intravenous bolus injection,[4]; [9],2.45 ± 0.02 mmol/L
same,blood calcium level after a single intravenous bolus injection,"[4]; 4.5 mg/kg i.v., 4 h",1.79 ± 0.03 mmol/L
same,blood calcium level after a single intravenous bolus injection,"[4]; 4.5 mg/kg i.v., 8 h",1.53 ± 0.03 mmol/L
same,blood calcium level after a single intravenous bolus injection,"[4]; 4.5 mg/kg i.v., 16 h",1.64 ± 0.17 mmol/L
same,blood calcium levels compared with the concentration before administration (in words),"[4]; normal rats, single tail vein bolus injection, each administration group, P≤0.01",decreased significantly
same,time at which serum phosphorus level reached the highest,[5]; high-dose group (4.5 mg/kg),8 h
same,time at which serum phosphorus level reached the highest,[5]; low-dose group (0.5 mg/kg and 1.5 mg/kg),4 h
same,blood phosphorus level after a single intravenous bolus injection,[5]; [7],2.70 ± 0.06 mmol/L
same,blood phosphorus level after a single intravenous bolus injection,"[5]; 0.5 mg/kg i.v., 4 h",2.78 ± 0.14 mmol/L
same,blood phosphorus level after a single intravenous bolus injection,"[5]; 0.5 mg/kg i.v., 8 h",2.67 ± 0.06 mmol/L
same,blood phosphorus level after a single intravenous bolus injection,"[5]; 0.5 mg/kg i.v., 16 h",2.49 ± 0.08 mmol/L
same,blood phosphorus level after a single intravenous bolus injection,[5]; [8],2.65 ± 0.08 mmol/L
same,blood phosphorus level after a single intravenous bolus injection,"[5]; 1.5 mg/kg i.v., 4 h",3.04 ± 0.08 mmol/L
same,blood phosphorus level after a single intravenous bolus injection,"[5]; 1.5 mg/kg i.v., 8 h",3.05 ± 0.08 mmol/L
same,blood phosphorus level after a single intravenous bolus injection,"[5]; 1.5 mg/kg i.v., 16 h",2.47 ± 0.06 mmol/L
same,blood phosphorus level after a single intravenous bolus injection,[5]; [9],2.63 ± 0.02 mmol/L
same,blood phosphorus level after a single intravenous bolus injection,"[5]; 4.5 mg/kg i.v., 4 h",3.31 ± 0.08 mmol/L
same,blood phosphorus level after a single intravenous bolus injection,"[5]; 4.5 mg/kg i.v., 8 h",3.67 ± 0.1 mmol/L
same,blood phosphorus level after a single intravenous bolus injection,"[5]; 4.5 mg/kg i.v., 16 h",2.49 ± 0.06 mmol/L
same,effect on blood phosphorus concentration (in words),"[5]; normal rats, single tail vein bolus injection",increasing the blood phosphorus concentration
Osteogenic growth peptide [OGP],concentration that significantly stimulates proliferation of fibroblast NIH3T3 cells (effective dose),fibroblast NIH/3T3 cells,10^−8 M
same,concentration that significantly stimulated proliferation of osteoblast MC3T3-E1 Subclone 4 cells,[6],10^−8 to 10^−16 M
